Results taken from patent US4983622A, “6-substituted-4-dialkylaminotetrahydrobenz(c,d)indoles” (Eli Lilly and Company, priority 1985, dated 1991).

Columns and labels:
[1] = tested on: serotonin metabolites in brain (5HIAA in hypothalamus); test: Decrease of serotonin metabolite (5HIAA) in hypothalamus; assay type: in vivo, Wistar rats; conditions: 0.3 mg/kg s.c., 1 hour; control 2.59 ± .11; * statistically significant
Experimental: (§1) Secondly, as a measure of central serotonin agonist activity, the decrease of serotonin metabolites in brain was measured. Also the measure of dopamine agonist activity was indicated by changes in dopamine metabolites.
(§2) The following protocol was employed. 150-200 g. Wistar rats were given 0.3 mg/kg subcutaneously of (±)-4-di-n-propylamino-6-substituted-1,3,4,5-tetrahydrobenz[c,d]indole.Then, 60 minutes later each rat was decapitated and the hypothalamus and striatum were dissected out and extracted. The amounts of homovanillic acid (HVA) and 3,4-dihydroxyphenylacetic acid (DOPAC) in the striatum and of 5-hydroxyindoleacetic acid (5HIAA) in the hypothalamus were measured by high-performance liquid chromatography, using electrochemical detection. Serum corticosteroids were also measured. In the table, columns 1 and 2 give the substitution pattern in the compounds of formula IV, columns 3-5, the 5HT or dopamine metabolite concentrations, and column 6, the serum corticosteroids.
(§3) Compounds were injected at 0.3 mg/kg s.c. 1 hour before rats were killed.

[2] = molecular target: T1, ^3 H-spiperone receptor binding, rat cerebral cortex membranes (Rattus norvegicus, UniProt P14842); test: Receptor binding, inhibition of specific ^3 H-spiperone binding; set-up: species or system male Wistar rats; conditions: 15 min at 37°, pH 7.4, 0.6-0.7 nM ^3 H-spiperone, read-out: ^3 H-Ligand-IC50, ^3 H-SPIP
T1 construct: The cerebral cortex was dissected out and then homogenized and centrifuged; from tissue; host or cells: cerebral cortex membranes of male Wistar rats
Experimental: The cerebral cortex was dissected out and then homogenized and centrifuged according to the method described by Nelson and coworkers Mol. Pharmacol., 14, 983-995 (1978), using preincubation in buffer without added monoamine oxidase inhibitor in order to eliminate endogenous serotonin. For receptor binding, each sample contained 300-400 μg. of membrane protein and 10 μM pargyline in addition to the ^3 H-ligand in 1 ml. of 0.05 M Tris buffer, pH=7.4. The assay of serotonin binding was done following the method of Bennett and Snyder, Mol. Pharmacol., 12, 373-389 (1976), and that for tritiated spiperone according to Peroutka and Snyder, Mol. Pharmacol. 16 687-699 (1979). The samples were incubated for 15 minutes at 37° and were then filtered through GF/C glass fiber filter pads using a Brandel M-24 cell harvester modified for receptor binding. After two 5 ml. rinses, the filter discs were put into scintillation vials and counted in 10 ml. of Amersham PCS scintillation fluid. Nonspecific binding of ^3 H-serotonin (^3 H-5HT) was determined in the presence of 10^-5 M serotonin and of ^3 H-spiperone in the presence of 10^-6 M LSD. Specific binding was calculated as the difference between total binding with no added nonradioactive compound and the nonspecific binding.

[3] = molecular target: ^3 H-serotonin (^3 H-5HT) receptor binding, rat cerebral cortex membranes; test: Receptor binding, inhibition of specific ^3 H-5HT (tritiated serotonin) binding; set-up: species or system male Wistar rats; conditions: 15 min at 37°, pH 7.4, 2-3 nM ^3 H-serotonin, read-out: ^3 H-Ligand-IC50, ^3 H-5HT
[4] = tested on: serum corticosteroids; test: Serum corticosterone; assay type: in vivo, Wistar rats; conditions: 0.3 mg/kg s.c., 1 hour; control 7 ± 1; * statistically significant
Experimental: as §2, §3

[5] = tested on: dopamine metabolites in striatum; test: Changes in dopamine metabolites (DOPAC, HVA) in striatum; assay type: in vivo, Wistar rats; conditions: 0.3 mg/kg s.c., 1 hour, * statistically significant; for Dopamine Metabolites In Striatum, HVA: control 4.24 ± .27; for Dopamine Metabolites In Striatum, DOPAC: control 5.58 ± .38
Experimental: as §1, §2, §3

[6] = tested on: dopamine uptake, bovine striatal membrane; conditions: in vitro; cited from earlier work
[7] = tested on: serotonin; conditions: Harris and Uhle; cited from earlier work
[8] = tested on: serotonin turnover in brain (5-HTP accumulation); test: 5-HTP accumulation in hypothalamus after decarboxylase block by m-hydroxybenzylhydrazine (serotonin turnover); assay type: in vivo, Wistar rats
Experimental: Thirdly, as a measure of central serotonin agonist activity, the test rats received (±)-4-di-n-propylamino-6-methoxy-1,3,4,5-tetrahydrobenz[c,d]indole. The decrease of serotonin turnover in brain was measured as a function of 5-hydroxytryptophane (5-HTP) accumulation when the decarboxylation of 5-HTP is blocked by m-hydroxybenzylhydrazine, using the above protocol, except that thirty minutes after injection of the drug, m-hydroxybenzylhydrazine was injected at 100 mg./kg. i.p. Then, 40 minutes later each rat was decapitated, the hypothalamus dissected out and extracted. The amount of 5-HTP in each extract were measured by high-performance liquid chromatography, using electrochemical detection. In normal rats, 5-HTP brain levels are so low as to be virtually undetectable. Thus, the control group received the same dose of m-hydroxybenzylhydrazine as the test rats but no drug.

T1 sequence (P14842 whole entry): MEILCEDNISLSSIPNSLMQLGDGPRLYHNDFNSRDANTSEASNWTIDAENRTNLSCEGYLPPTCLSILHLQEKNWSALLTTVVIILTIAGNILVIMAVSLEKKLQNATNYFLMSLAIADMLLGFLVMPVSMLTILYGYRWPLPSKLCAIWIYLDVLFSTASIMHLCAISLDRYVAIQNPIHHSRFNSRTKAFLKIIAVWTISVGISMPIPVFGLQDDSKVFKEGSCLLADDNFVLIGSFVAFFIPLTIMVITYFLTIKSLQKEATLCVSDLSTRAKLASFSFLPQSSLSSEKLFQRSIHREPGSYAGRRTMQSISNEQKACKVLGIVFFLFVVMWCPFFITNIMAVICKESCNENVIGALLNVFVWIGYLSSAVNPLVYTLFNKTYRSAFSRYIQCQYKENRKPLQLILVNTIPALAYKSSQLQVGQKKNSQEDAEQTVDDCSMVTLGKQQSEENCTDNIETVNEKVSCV

Compound | 5HIAA In Hypothalamus [1] | IC50 [2] [nM] | IC50 [3] [nM] | Serum Corticosterone [4] [MCG/100 ML] | Dopamine Metabolites In Striatum, HVA [5] | Dopamine Metabolites In Striatum, DOPAC [5] | selective dopamine agonist, action in inhibiting dopamine uptake [6] | serotonin antagonism [7] | 5HTP Level in Nanomoles of Hypothalamus ± S.E. ([8]; 0.03 mg/kg, m-hydroxybenzylhydrazine 100 mg/kg i.p., zero dose 1.81 ± 0.11) [Nanomoles] | 5HTP Level in Nanomoles of Hypothalamus ± S.E. ([8]; 0.10 mg/kg, m-hydroxybenzylhydrazine 100 mg/kg i.p., zero dose 1.81 ± 0.11, * P < .05) [Nanomoles] | 5HTP Level in Nanomoles of Hypothalamus ± S.E. ([8]; 0.30 mg/kg, m-hydroxybenzylhydrazine 100 mg/kg i.p., zero dose 1.81 ± 0.11, * P < .05) [Nanomoles] | 5HTP accumulation ([8]; certain dose levels, hypothalamus) | 5HTP Level in Nanomoles of Hypothalamus ± S.E. ([8]; ip, 0.01 mg/kg) [Nanomoles]
COc1ccc2[nH]cc3c2c1CC(N(C)C)C3 (racemic) [(±)-4-dimethylamino-6-methoxy-1,3,4,5-tetrahydrobenz[c,d]indole] | 1.69 ± .07 NMoles/G | 1490 | 70 | 41 ± 4 | 4.68 ± .21 NMoles/G | 7.15 ± .23 NMoles/G | – | – | – | – | – | – | –
CCCN(CCC)C1Cc2cccc3[nH]cc(c23)C1 (racemic) [(±)-4-di-n-propylamino-1,3,4-5-tetrahydrobenz[c,d]indole] | – | – | – | – | – | – | selective dopamine agonist | – | – | – | – | – | –
CC(=O)NC1Cc2c[nH]c3cccc(c23)C1=O (stereo not shown) [4-acetylamino-5-oxo derivative] | – | – | – | – | – | – | – | one exception | – | – | – | – | –
CCCN(CCC)C1Cc2c[nH]c3ccc(OC)c(c23)C1 (racemic) [(±)-4-di-n-propylamino-6-methoxy-1,3,4,5-tetrahydrobenz[c,d]indole] | 1.51 ± .05 NMoles/G | 950 | 50 | 48 ± 2 | 2.43 ± .18 NMoles/G | 4.61 ± .10 NMoles/G | – | – | 1.72 ± 0.07 | 1.16 ± 0.05 | 0.97 ± 0.03 | significantly decreased 5HTP accumulation | 1.85 ± 0.06
